One data set deals with solid malignancies. To be noted: cited from earlier work; for recommended dose for phase II studies: 1-h i.v. infusion every 3 weeks; for maximum tolerable dose: i.v. infusion every 3 weeks.
The subject of a further data set is advanced lung cancer. To be noted: weekly rapid iv injection, previously treated patients with advanced lung cancer; cited from earlier work.
Data set [1] deals with acute myeloid leukemia (AML). The data set can be described thus: Effect of brequinar-containing composition on patient with AML. The format is in vivo, human.
Another data set deals with RNA virus. The experiment in a line: Daily brequinar x 5 days in a subject infected with an RNA virus. To be noted: at first peak in brequinar level, once per day for five days. The format is in vivo. The procedure: The mechanism by which administration of a DHODH inhibitor according to a daily dosing regimen inhibits viral replication is illustrated below. […] Throughout the course of the dosing regimen, levels of intracellular pyrimidines, such as uridine, and viral replication are measured.

The next data set deals with DHODH (Homo sapiens, UniProt Q02127).
The conditions of data set [2]: in vivo.
The conditions of data set [3]: in vivo. This is another data set of the same source.
Data set [4] is described as follows: Adverse events in subjects receiving brequinar intravenously once a week. To be noted: Infection.
A further data set relates to SARS-CoV-2. In kind it is cell-based.
The subject of a further data set is Vero E6 cells. The conditions noted are these: remdesivir co-treated with brequinar.

The structures appear in SMILES notation. Like-named read-outs stand apart in the source and are kept apart here.

Chain of DHODH (Q02127 whole entry): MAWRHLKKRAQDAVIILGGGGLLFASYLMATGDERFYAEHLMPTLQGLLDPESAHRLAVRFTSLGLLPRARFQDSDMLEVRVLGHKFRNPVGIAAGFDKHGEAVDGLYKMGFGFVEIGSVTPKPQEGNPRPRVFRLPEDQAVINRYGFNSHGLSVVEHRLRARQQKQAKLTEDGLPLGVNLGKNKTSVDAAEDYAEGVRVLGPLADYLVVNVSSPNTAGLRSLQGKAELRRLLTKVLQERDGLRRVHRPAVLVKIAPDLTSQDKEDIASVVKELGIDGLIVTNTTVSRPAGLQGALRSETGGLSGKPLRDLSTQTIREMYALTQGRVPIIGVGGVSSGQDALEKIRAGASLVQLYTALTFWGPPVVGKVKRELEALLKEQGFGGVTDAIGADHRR

On to `Cc1c(-c2ccc(-c3ccccc3F)cc2)nc2ccc(F)cc2c1C(=O)O` [Brequinar sodium], for which the figures for the “recommended dose for phase II studies” value with solid malignancies (good-risk patients) and with solid malignancies (poor-risk patients) were 1,800 mg/m^2 and 1,200 mg/m^2, respectively. In addition, the maximum tolerable dose is reported as 2,250 mg/m^2 in the data set on solid malignancies (good-risk patients) and 1,500 mg/m^2 in the data set with solid malignancies (poor-risk patients). In the data set with solid malignancies (patient with papillary carcinoma of the thyroid), the tumor response entry is recorded as “One mixed response”.
For the molecule `NC(=O)c1[nH]nc([C@@H]2O[C@H](CO)[C@@H](O)[C@H]2O)c1O` [PYR, 5-[(2S,3R,4S,5R)-3,4-dihydroxy-5-(hydroxymethyl)oxolan-2-yl]-4-hydroxy-1H-pyrazole-3-carboxamide], in the data set on advanced lung cancer, the therapeutic value entry is on record as “has little therapeutic value as a single agent”.
As for `Cc1c(-c2ccc(-c3ccccc3F)cc2)nc2ccc(F)cc2c1C(=O)O` [brequinar, 6-fluoro-2-(2′-fluoro-1,1′ biphenyl-4-yl)-3-methyl-4-quinoline carboxylic acid], in [1] (first patient with AML (Example 12)), the response entry was “positive response as indicated by reduction in bone marrow blast count, improvement of extramedullary hematopoiesis, and shift to more differentiation in peripheral blasts”. Also, in [1] (patient with AML of Example 14), the response result is on record as “positive response as indicated by a trend towards differentiation of their peripheral blasts”. Besides, the response entry in [1] (second patient with AML (Example 13)) was “positive response to the disease with a lowering of peripheral blasts and increase in absolute neutrophil count, along with greater differentiation of peripheral blasts”. In addition, in the data set with RNA virus, the intracellular pyrimidine pool result was “dramatic decrease in the intracellular pyrimidine pool” and the viral replication entry is “dramatic reduction in viral replication”. Besides, the “concentrations at which DHODH is almost completely inhibited” value at DHODH is above 1 µM. Also, the “effect of repeated doses” value in data set [2] is listed as “No cumulative effective of repeated doses”. Also, the “oral versus IV formulations” value in [3] is “oral and IV formulations are equivalent”. For the same molecule, in data set [4], the “No. of Patients” value worked out at 7; the “No. of Patients Experiencing the AE, 5 y Max Grade 1” value is listed as 4; the “No. of Patients Experiencing the AE, 5 y Max Grade 2” value was 3; the “No. of Patients Experiencing the AE, 5 y Max Grade 3” value is on record as 0. For the same molecule, in data set [4], the “No. of Patients Experiencing the AE, 5 y Max Grade 4” value was determined as 0 and the Percent was found to be 3.3%.
As for `CCC(CC)COC(=O)[C@H](C)N[P@](=O)(OC[C@H]1O[C@@](C#N)(c2ccc3c(N)ncnn23)[C@H](O)[C@@H]1O)Oc1ccccc1` [remdesivir], the “Min Data” value in the data set with SARS-CoV-2 (brequinar 0.000 μM) is on record as −11%; in the data set with SARS-CoV-2 (brequinar 0.078 μM), −1.9%. Moreover, the cytotoxicity of co-treatment entry in the data set on Vero E6 cells is recorded as “No enhanced cytotoxicity”.

These data come from patent US20210315880A1, “METHODS OF TREATING VIRAL INFECTIONS USING INHIBITORS OF NUCLEOTIDE SYNTHESIS PATHWAYS” (priority 2020, published 2021).
